The conditions of the series: 25.0 °C.

Compound `Clc1ccc(Cl)c(-c2c(Cl)ccc(Cl)c2Cl)c1` displayed a log10 OH rate constant (cm³/molecule/s) of -12.4.

In turn, `Clc1ccc(-c2ccc(Cl)cc2Cl)cc1` displayed a log10 OH rate constant (cm³/molecule/s) of -12.

Turning to `Clc1ccc(-c2ccccc2Cl)cc1Cl`, the log10 OH rate constant (cm³/molecule/s) is -12.

The compound `Clc1ccc(-c2c(Cl)ccc(Cl)c2Cl)cc1Cl` had a log10 OH rate constant (cm³/molecule/s) of -12.2.

In turn, `Clc1c(Cl)c(Cl)c(-c2ccccc2)c(Cl)c1Cl` had a log10 OH rate constant (cm³/molecule/s) of -12.

Compound `Clc1ccc(Cl)c(-c2cccc(Cl)c2Cl)c1` came in with a log10 OH rate constant (cm³/molecule/s) of -12.1.

`Clc1ccc(-c2ccc(Cl)cc2Cl)c(Cl)c1`: the log10 OH rate constant (cm³/molecule/s) is -12.

`Clc1cc(Cl)c(-c2ccccc2)cc1Cl` gave a log10 OH rate constant (cm³/molecule/s) of -11.9.

The compound `Clc1ccc(-c2ccccc2)c(Cl)c1` displayed a log10 OH rate constant (cm³/molecule/s) of -11.6.

Turning to `Clc1ccc(-c2cc(Cl)ccc2Cl)cc1`, the log10 OH rate constant (cm³/molecule/s) was -11.9.

(Values after the OPERA property sets (Mansouri et al. 2018).)
